Consider 20 molecules from patent US10183944B2 (Asana Biosciences, LLC, priority 2011, dated 2019).

Structures can show the parent of a compound that is named as a salt. Where two headings read alike, the source gives them in different places.

One experiment has as its system RBL2H3 cells. Briefly: Degranulation assay: β-hexosaminidase release during immune complex mediated degranulation. The format is cell-based, rat. The conditions noted are these: Assay Protocol B (96 well format); for inhibition at 1 µM: read-out: Degranulation % inhibition at 1 μM; for EC50: read-out: Degranulation EC50. As to the method:
The objective of this assay was to examine by Fluorescence method the effect of compounds on β-hexosaminidase release during immune complex mediated degranulation in RBL2H3 cells. Compounds were tested for their ability to inhibit the ability of this immune complex to mediate β-hexosaminidase release, in an enzyme assay with […] as substrate. […] Emission 460 nm). [table] [table] RBL2H3 cells were maintained in MEM complete media containing 10% FBS at 70%-80% confluence in a mammalian cell culture CO2 incubator with 5% CO2 at 37° C. 2×10^5 cells/well were plated in 1 mL of complete media and incubated for 5 hours for cell attachment. Complete media was replaced with 1 mL of serum free MEM media containing 1.2 μg/mL of anti-DNP rat IgE as sensitizing agent and further incubated overnight with 5% CO2 at 37° C. […] Cells were further stimulated with 5 μg/mL of DNP-BSA for 60 minutes. Plates were centrifuged for 5 minutes at 1000 rpm and 25 μL of culture supernatant was transferred from each assay well into a 96 well black coated plate. 25 μL β-NAG substrate was added to this mixture and incubated at room temperature for 30 minutes. The reaction was terminated with 100 μL of stop solution and fluorescence was monitored. (Excitation 355 nm; Emission 460 nm) See, Sanderson, (2010), Cellular Immunology, 262(1): 28-34 and Silverman, (2006) MCB, 26(5):1826-1838, which are incorporated herein by reference. The % release of β-Hexosaminidase for the test compound was calculated using the following formula: RBL2H3 cells were maintained in MEM complete media containing 10% FBS at 70-80% confluence in a mammalian cell culture CO2 incubator with 5% CO2 at 37° C. 5×10^4 cells/well were plated in 200 μL of complete media containing 0.3 μg/mL of anti-DNP rat IgE as sensitizing agent for 24 hours at 37° C. & 5% CO2. The following day, cells were washed twice with PIPES buffer for 10 minutes at 37° C. and replenished with serum free MEM media. Cells were treated with various concentrations of test compounds (in 0.5% DMSO) for 15 minutes at 37° C. and 5% CO2. The cells were further stimulated with 0.1 μg/mL of DNP-BSA for 45 minutes. The plates were spun for 5 minutes at 2000 rpm and 25 μL of culture supernatant was then transferred from each assay well into a 96 well black coated plate. […] β-NAG substrate was added and incubated at RT for 30 minutes. After incubation with substrate, 150 μL of stop solution was added and fluorescence was monitored. (Excitation 355 nm; Emission 460 nm). See, Yamamoto, JPET, 306(3):1174-1181 (2003) and Taylor, MCB, 15(8): 4149-4157 (1995), which are herein incorporated by reference. Release of β-hexosaminidase during the degranulation process by immune complex mediated FcεRI stimulation is through the SYK pathway. The % inhibition of β-hexosaminidase release by Syk inhibitor gives information with regard to its Syk inhibition potency.

Experiment [1] addresses Syk (356-635 amino acids) catalytic domain (Homo sapiens (Human), UniProt P43405). Briefly: Inhibition of enzymatic Syk kinase activity (radiometric). The experiment is classed as biochemical. Conditions: read-out: IC50 Syk. The gist of the method:
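Radiometric filter-binding format: 32P transfer from γ-32P-ATP onto pG4T, scintillation-counted after acid washes of P81 paper. Syk kinase domain (356-635), 0.035–7.5 ng per reaction, was exposed to compound for 30 minutes at room temperature before a 10-minute, 30° C. reaction with ATP (100 μM stock). Inhibition derived from counts with versus without compound.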

In a further experiment the target is JAK2 (Homo sapiens (Human), UniProt O60674). Briefly: Inhibition of enzymatic JAK2 kinase activity (TR-FRET). The format is biochemical. The conditions noted are these: read-out: IC50 JAK. The gist of the method: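 TR-FRET read-out (Eu antibody donor, Ulight poly Glu-Tyr acceptor, 665/615 nm ratio) after a 60 min RT kinase reaction with ATP, begun following 30 min compound–enzyme preincubation. Stopped by EDTA; inhibition expressed as 100 minus % activity of positive control.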
JAK2, sequence (O60674 808-1132): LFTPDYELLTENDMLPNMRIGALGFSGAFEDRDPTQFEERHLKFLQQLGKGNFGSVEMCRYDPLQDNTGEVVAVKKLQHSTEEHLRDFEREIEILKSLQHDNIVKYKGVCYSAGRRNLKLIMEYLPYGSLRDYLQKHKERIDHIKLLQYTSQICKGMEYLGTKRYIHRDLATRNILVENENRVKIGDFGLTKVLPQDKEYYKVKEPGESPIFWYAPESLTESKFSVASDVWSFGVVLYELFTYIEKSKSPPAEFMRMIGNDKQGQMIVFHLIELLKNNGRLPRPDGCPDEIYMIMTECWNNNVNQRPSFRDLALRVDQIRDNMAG

The mark [2] stands for this setting: Rattus norvegicus, RBL-2H3, 1 μM.

`O=c1[nH]ncc2nc(N3CCCCCC3)nc(Nc3ccc(OCCN4CCNCC4)cc3)c12` [Example 89, 2-(azepan-1-yl)-4-((4-(2-(piperazin-1-yl)ethoxy)phenyl)amino)pyrimido[4,5-d]pyridazin-5(6H)-one hydrochloride]: the inhibition at 1 µM in the experiment with RBL2H3 cells (setting [2]) worked out at 100%.
Regarding `N#CCC1CCN(c2ccc(Nc3nc(N4CCC(CC#N)CC4)nc4cn[nH]c(=O)c34)cn2)CC1` [Example 103, 2-(1-(5-((2-(4-(cyanomethyl)piperidin-1-yl)-5-oxo-5,6-dihydropyrimido[4,5-d]pyridazin-4-yl)amino)pyridin-2-yl)piperidin-4-yl)acetonitrile], in the experiment with RBL2H3 cells (setting [2]), the inhibition at 1 µM is 87%. The EC50 in the experiment with RBL2H3 cells (Rattus norvegicus, RBL-2H3) was 32 nM.
`CC1CC(C)CN(c2nc(Nc3ccc(N4CCC(CC(=O)O)CC4)cc3)c3c(=O)[nH]ncc3n2)C1` (stereo not shown) [Example 117, 2-(1-(4-((2-(3,5-dimethylpiperidin-1-yl)-5-oxo-5,6-dihydropyrimido[4,5-d]pyridazin-4-yl)amino)phenyl)piperidin-4-yl)acetic acid]: the inhibition at 1 µM in the experiment on RBL2H3 cells (setting [2]) was 89%. In addition, the EC50 in the experiment on RBL2H3 cells (Rattus norvegicus, RBL-2H3) was determined as 95 nM.
Take `O=C(O)CN1CCN(c2ccc(Nc3nc(N4CCCCCC4)nc4cn[nH]c(=O)c34)cc2)CC1` [Example 125, 2-(4-(4-((2-(azepan-1-yl)-5-oxo-5,6-dihydropyrimido[4,5-d]pyridazin-4-yl)amino)phenyl)piperazin-1-yl)acetic acid]: the inhibition at 1 µM in the experiment with RBL2H3 cells (setting [2]) worked out at 38%. Further, the EC50 in the experiment on RBL2H3 cells (Rattus norvegicus, RBL-2H3) was found to be 238 nM.
For the molecule `O=C(O)C1CC12CCN(c1ccc(Nc3nc(-c4ccc(F)cc4)nc4cn[nH]c(=O)c34)cc1)CC2` (stereo not shown) [Example 133, 6-(4-((2-(4-fluorophenyl)-5-oxo-5,6-dihydropyrimido[4,5-d]pyridazin-4-yl)amino)phenyl)-6-azaspiro[2.5]octane-1-carboxylic acid], the inhibition at 1 µM in the experiment on RBL2H3 cells (setting [2]) was determined as 98%. Further, the concentration giving a half-maximal response (EC50) in the experiment with RBL2H3 cells (Rattus norvegicus, RBL-2H3) was found to be 25 nM.
Regarding `CCN1CCN(CCOc2ccc(Nc3nc(N4CCCCCC4)nc4cn[nH]c(=O)c34)cc2)CC1` [Example 151, 2-(azepan-1-yl)-4-((4-(2-(4-ethylpiperazin-1-yl)ethoxy)phenyl)amino) pyrimido[4,5-d]pyridazin-5(6H)-one], in the experiment on RBL2H3 cells (Rattus norvegicus, RBL-2H3), the EC50 amounted to 24 nM.
As for `O=c1[nH]ncc2nc(N3CCCCCC3)nc(Nc3ccc(OCCN4CCCNCC4)cc3)c12` [Example 164, 4-((4-(2-(1,4-diazepan-1-yl)ethoxy)phenyl)amino)-2-(azepan-1-yl)pyrimido[4,5-d]pyridazin-5(6H)-one], the concentration giving a half-maximal response (EC50) with RBL2H3 cells (Rattus norvegicus, RBL-2H3) is 55 nM.
Regarding `CN(c1nc(Nc2ccc(N3CCC4(CC3)CC4C(=O)O)cc2)c2c(=O)[nH]ncc2n1)C1CCCCC1` (stereo not shown) [Example 170, 6-(4-((2-(cyclohexyl(methyl)amino)-5-oxo-5,6-dihydropyrimido[4,5-d]pyridazin-4-yl)amino)phenyl)-6-azaspiro[2.5]octane-1-carboxylic acid], the inhibition at 1 µM in the experiment on RBL2H3 cells (setting [2]) was 39%. Moreover, the EC50 in the experiment with RBL2H3 cells (Rattus norvegicus, RBL-2H3) was found to be 107 nM.
The like results for `N#CCC1CCN(c2nc(Nc3ccc(CCCN4CCNCC4)cc3)c3c(=O)[nH]ncc3n2)CC1` [Example 174, 2-(1-(5-oxo-4-((4-(3-(piperazin-1-yl)propyl)phenyl)amino)-5,6-dihydropyrimido[4,5-d]pyridazin-2-yl)piperidin-4-yl)acetonitrile] were, in that order, 99% and 15 nM.
As to `O=c1[nH]ncc2nc(N3CCCCCC3)nc(Nc3ccc(N4CCN(CCO)CC4)cc3)c12` [Example 190, 2-(azepan-1-yl)-4-((4-(4-(2-hydroxyethyl)piperazin-1-yl)phenyl)amino)pyrimido[4,5-d]pyridiazin-5(6H)-one], in the experiment on RBL2H3 cells (1 μM), the “Degranulation % inhibition at 1 μM” value worked out at 83%. The EC50 in the experiment with RBL2H3 cells was found to be 21 nM.
Regarding `N#CCC1CCN(c2nc(Nc3ccc(N4CCC(F)CC4)cc3)c3c(=O)[nH]ncc3n2)CC1` [Example 290, 2-(1-(4-((4-(4-fluoropiperidin-1-yl)phenyl)amino)-5-oxo-5,6-dihydropyrimido[4,5-d]pyridazin-2-yl)piperidin-4-yl)acetonitrile], the inhibition at 1 µM in the experiment on RBL2H3 cells (setting [2]) is 100%. Further, the 50% effective concentration (EC50) in the experiment on RBL2H3 cells (Rattus norvegicus, RBL-2H3) was determined as 20 nM.
With `O=c1[nH]ncc2nc(N3CCCCCC3)nc(Nc3ccc(CCO)cc3)c12` [Example 322, 2-(azepan-1-yl)-4-((4-(2-hydroxyethyl)phenyl)amino)pyrimido[4,5-d]pyridazin-5(6H)-one], the IC50 in experiment [1] is < 50 nM; on JAK2 it was < 10 nM.
For `N#CCC1CCN(c2nc(Nc3ccc(CCO)cc3)c3c(=O)[nH]ncc3n2)CC1` [Example 323, 2-(1-(4-((4-(2-hydroxyethyl)phenyl)amino)-5-oxo-5,6-dihydropyrimido[4,5-d]pyridazin-2-yl)piperidin-4-yl) acetonitrile], the IC50 (in experiment [1]; on JAK2) was < 50 nM each time.
Consider `COCCOc1ccc(Nc2nc(N3CCCCCC3)nc3cn[nH]c(=O)c23)cc1` [Example 324, 2-(azepan-1-yl)-4-((4-(2-methoxyethoxy)phenyl)amino)pyrimido[4,5-d]pyridazin-5(6H)-one], for which the IC50 (in experiment [1]; at JAK2) was < 50 nM each time.
For `O=c1[nH]ncc2nc(N3CCCCCC3)nc(Nc3ccc(CO)cc3)c12` [Example 331, 2-(azepan-1-yl)-4-((4-(hydroxymethyl)phenyl)amino)pyrimido[4,5-d]pyridazin-5(6H)-one], the results for the concentration for half-maximal inhibition (IC50) (in experiment [1]; on JAK2) were < 50 nM and > 100 nM, respectively.
The like results for `CS(=O)(=O)c1ccc(Nc2nc(N3CCCCCC3)nc3cn[nH]c(=O)c23)cc1` [Example 334, 2-(azepan-1-yl)-4-((4-(methylsulfonyl)phenyl)amino)pyrimido[4,5-d]pyridazin-5(6H)-one] were, in that order, < 50 nM and < 10 nM.
Turning to `N#CCC1CCN(c2nc(Nc3ccc4[nH]nnc4c3)c3c(=O)[nH]ncc3n2)CC1` [Example 335, 2-(1-(4-((1H-benzo[d][1,2,3]triazol-5-yl)amino)-5-oxo-5,6-dihydropyrimido[4,5-d]pyridazin-2-yl)piperidin-4-yl) acetonitrile], the IC50 (in experiment [1]; at JAK2) was < 50 nM in each case.
`N#CCC1CCN(c2nc(Nc3ccc4[nH]c(=O)[nH]c4c3)c3c(=O)[nH]ncc3n2)CC1` [Example 336, 2-(1-(5-oxo-4-((2-oxo-2,3-dihydro-1H-benzo[d]imidazol-5-yl)amino)-5,6-dihydropyrimido[4,5-d]pyridazin-2-yl)piperidin-4-yl)acetonitrile]: the IC50 (in experiment [1]; on JAK2) was < 50 nM in each case.
With `N#CCC1CCN(c2nc(Nc3ccc(CCCF)cc3)c3c(=O)[nH]ncc3n2)CC1` [Example 337, 2-(1-(4-((4-(3-fluoropropyl)phenyl)amino)-5-oxo-5,6-dihydropyrimido[4,5-d]pyridazin-2-yl)piperidin-4-yl) acetonitrile], the IC50 (in experiment [1]; on JAK2) was < 50 nM throughout.
`N#CCC1CCN(c2nc(Nc3ccc(OC(F)F)cc3)c3c(=O)[nH]ncc3n2)CC1` [Example 338, 2-(1-(4-((4-(difluoromethoxy)phenyl)amino)-5-oxo-5,6-dihydropyrimido[4,5-d]pyridazin-2-yl)piperidin-4-yl) acetonitrile]: the results for the half-inhibitory concentration (IC50) (in experiment [1]; at JAK2) were < 100 nM and > 100 nM, respectively.
